{
  "source": "patent US10301284B2",
  "about": "“Therapeutic inhibitory compounds” (LifeSci Pharmaceuticals, Inc., priority 2016, dated 2019)",
  "key": {"human Plasma Kallikrein [1]": {"molecular_target": "T1, human Plasma Kallikrein (Homo sapiens (Human), UniProt P03952)", "T1 sequence (P03952 391-638 limits assumed)": "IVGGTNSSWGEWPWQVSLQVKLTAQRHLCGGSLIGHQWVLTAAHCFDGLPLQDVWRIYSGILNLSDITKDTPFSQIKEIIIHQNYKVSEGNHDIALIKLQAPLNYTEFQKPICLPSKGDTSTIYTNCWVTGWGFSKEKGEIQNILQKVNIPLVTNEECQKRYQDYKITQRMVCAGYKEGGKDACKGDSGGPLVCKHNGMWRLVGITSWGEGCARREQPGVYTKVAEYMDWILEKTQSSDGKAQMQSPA", "T1 sequence (P03952 20-390 partner limits assumed)": "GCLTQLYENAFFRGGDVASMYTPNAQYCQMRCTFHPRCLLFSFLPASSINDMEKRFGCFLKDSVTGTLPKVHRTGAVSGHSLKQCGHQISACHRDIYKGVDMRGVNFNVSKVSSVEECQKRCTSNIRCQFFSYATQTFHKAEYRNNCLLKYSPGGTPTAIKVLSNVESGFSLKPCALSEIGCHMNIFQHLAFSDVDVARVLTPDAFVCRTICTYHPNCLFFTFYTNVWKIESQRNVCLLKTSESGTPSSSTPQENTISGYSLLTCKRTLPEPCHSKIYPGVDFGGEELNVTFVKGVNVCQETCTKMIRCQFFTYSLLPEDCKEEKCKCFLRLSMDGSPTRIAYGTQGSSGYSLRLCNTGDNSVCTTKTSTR", "experiment": "Human whole blood kallikrein inhibition (ellagic acid-activated human plasma, Z-FR-2-AMC substrate)", "type": "biochemical", "how_it_was_run": "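Platelet-depleted human plasma was activated with ellagic acid and diluted in 50 mM Tris-HCl pH 7.2, 150 mM NaCl, 0.01% Triton X-100, then preincubated 15 min at 37 °C. Compounds (0.076 nM–20 μM, duplicates) were added for 5 min at 37 °C. Z-FR-2-AMC (40 μM final) was read kinetically at ex 330/em 440 nm for 60 min, and IC50 was taken from a variable-slope fit.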"}, "human Plasma Kallikrein [2]": {"molecular_target": "T1, human Plasma Kallikrein", "experiment": "In vitro enzyme inhibition of human plasma kallikrein (Pro-Phe-Arg-AMC cleavage)", "type": "biochemical", "conditions": "human plasma kallikrein, PFR-AMC substrate, 37° C.; read-out: hPK IC50", "how_it_was_run": "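Human plasma kallikrein preincubated 5 min at 37 °C with compound in 50 mM Tris-HCl pH 7.5, 150 mM NaCl, 0.01% Triton X-100. Reaction started with Pro-Phe-Arg-AMC, fluorescence read every 43 s for 1 h at 37 °C. IC50 from highest mean velocity over 20 reads (~15 min).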"}, "[3]": {"experiment": "Pharmacokinetic evaluation, oral exposure in rats", "type": "in vivo", "conditions": "male Sprague-Dawley rats, single oral dose 10 mg/kg via oral gavage, plasma", "how_it_was_run": "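Male Sprague-Dawley rats dosed once at 10 mg/kg by oral gavage (2 mg/mL formulation). Jugular blood drawn pre-dose and from 5 min to 24 h post-dose; plasma compound levels measured by LC/MS/MS.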"}},
  "note": "Like-named read-outs stand apart in the source and are kept apart here.",
  "data": [
    {"compound": "Cc1cc(N)nc(C)c1CNC(=O)c1cn(Cc2ccc3ncc(Cl)cc3c2)c2cncc(C#N)c12", "note": "[Example 123, N-((6-amino-2,4-dimethylpyridin-3-yl)methyl)-1-((3-chloroquinolin-6-yl)methyl)-4-cyano-1H-pyrrolo[2,3-c]pyridine-3-carboxamide]", "values": [
      {"measurement": "EC50", "setting": "human Plasma Kallikrein [1]", "result": "< 100", "unit": "nM"},
      {"measurement": "IC50", "setting": "human Plasma Kallikrein [2]", "result": "< 100", "unit": "nM"},
      {"measurement": "AUC", "setting": "[3]; rat, read-out: AUC", "result": "< 100", "unit": "ng·h/mL"}
    ]},
    {"compound": "Cc1cc(N)nc(C)c1CNC(=O)c1cn(Cc2ccc3ncc(Cl)cc3c2)c2nccc(C#N)c12", "note": "[Example 127, N-((6-amino-2,4-dimethylpyridin-3-yl)methyl)-1-((3-chloroquinolin-6-yl)methyl)-4-cyano-1H-pyrrolo[2,3-b]pyridine-3-carboxamide]", "values": [
      {"measurement": "EC50", "setting": "human Plasma Kallikrein [1]", "result": "< 100", "unit": "nM"},
      {"measurement": "IC50", "setting": "human Plasma Kallikrein [2]", "result": "< 100", "unit": "nM"},
      {"measurement": "AUC", "setting": "[3]; rat, read-out: AUC", "result": "100 to 1000", "unit": "ng·h/mL"}
    ]},
    {"compound": "Cc1cc(N)nc(C)c1CNC(=O)c1nn(Cc2ccc3ncc(Cl)cc3c2)c2cncc(C#N)c12", "note": "[Example 129, N-((6-amino-2,4-dimethylpyridin-3-yl)methyl)-1-((3-chloroquinolin-6-yl)methyl)-4-cyano-1H-pyrazolo[3,4-c]pyridine-3-carboxamide]", "values": [
      {"measurement": "EC50", "setting": "human Plasma Kallikrein [1]", "result": "< 100", "unit": "nM"},
      {"measurement": "IC50", "setting": "human Plasma Kallikrein [2]", "result": "< 100", "unit": "nM"},
      {"measurement": "AUC", "setting": "[3]; rat, read-out: AUC", "result": "< 100", "unit": "ng·h/mL"}
    ]},
    {"compound": "Cc1cc(N)nc(C)c1CNC(=O)c1cn(Cc2ccc3ncc(Cl)cc3c2)c2cnc(C#N)cc12", "note": "[Example 134, N-((6-amino-2,4-dimethylpyridin-3-yl)methyl)-1-((3-chloroquinolin-6-yl)methyl)-5-cyano-1H-pyrrolo[2,3-c]pyridine-3-carboxamide]", "values": [
      {"measurement": "EC50", "setting": "human Plasma Kallikrein [1]", "result": "< 100", "unit": "nM"},
      {"measurement": "IC50", "setting": "human Plasma Kallikrein [2]", "result": "< 100", "unit": "nM"},
      {"measurement": "AUC", "setting": "[3]", "result": "BLQ"}
    ]},
    {"compound": "Cc1cc(N)nc(C)c1CNC(=O)c1nn(Cc2ccc3ncc(Cl)cc3c2)c2ccc(=O)[nH]c12", "note": "[Example 138, N-((6-amino-2,4-dimethylpyridin-3-yl)methyl)-1-((3-chloroquinolin-6-yl)methyl)-5-oxo-4,5-dihydro-1H-pyrazolo[4,3-b]pyridine-3-carboxamide]", "values": [
      {"measurement": "EC50", "setting": "human Plasma Kallikrein [1]", "result": "< 100", "unit": "nM"},
      {"measurement": "IC50", "setting": "human Plasma Kallikrein [2]", "result": "< 100", "unit": "nM"},
      {"measurement": "AUC", "setting": "[3]; rat, read-out: AUC", "result": "< 100", "unit": "ng·h/mL"}
    ]},
    {"compound": "Cc1nc(N)ccc1CNC(=O)c1nn(Cc2ccc3ncc(Cl)cc3c2)c2ccc(=O)[nH]c12", "note": "[Example 139, N-((6-amino-2-methylpyridin-3-yl)methyl)-1-((3-chloroquinolin-6-yl)methyl)-5-oxo-4,5-dihydro-1H-pyrazolo[4,3-b]pyridine-3-carboxamide]", "values": [
      {"measurement": "EC50", "setting": "human Plasma Kallikrein [1]", "result": "< 100", "unit": "nM"},
      {"measurement": "IC50", "setting": "human Plasma Kallikrein [2]", "result": "< 100", "unit": "nM"},
      {"measurement": "AUC", "setting": "[3]; rat, read-out: AUC", "result": "100 to 1000", "unit": "ng·h/mL"}
    ]},
    {"compound": "N-((6-amino-2,4-dimethylpyridin-3-yl)methyl)-1-((3-chloroquinolin-6-yl)methyl)-3-cyano-1H-pyrazole-4-carboxamide [Example 26]", "values": [
      {"measurement": "EC50", "setting": "human Plasma Kallikrein [1]; human plasma activated with ellagic acid, Z-FR-2-AMC 40 μM, 37° C., read-out: HWB EC50", "result": "100 to 1000", "unit": "nM"},
      {"measurement": "IC50", "setting": "human Plasma Kallikrein [2]", "result": "< 100", "unit": "nM"},
      {"measurement": "AUC", "setting": "[3]", "result": "B (>100 ng · h/mL to ≤1000 ng · h/mL)"}
    ]}
  ]
}
